In patent US10155768B2, “Fused pyrimidine compound or salt thereof” (TAIHO PHARMACEUTICAL CO., LTD., priority 2016, dated 2018):

Test: Evaluation of stability in liver microsome
Details: mouse liver microsome 0.25 mg/mL, 1 μM test compound, 37° C. for 30 minutes

Remaining (%) | SMILES
80% | COCc1ccc(NC(=O)c2c(C#CCC3CCCCC3)n(C3(C)CC3)c3ncnc(N)c23)cc1 [Example 199, 4-amino-6-(3-cyclohexylprop-1-yn-1-yl)-N-(4-(methoxymethyl)phenyl)-7-(1-methylcyclopropyl)-7H-pyrrolo[2,3-d]pyrimidine-5-carboxamide]
62% | C=C(C)c1c(C(=O)Nc2ccc(COC)cc2)c2c(N)ncnc2n1C1(C)CC1 [Example 149, 4-amino-N-(4-(methoxymethyl)phenyl)-7-(1-methylcyclopropyl)-6-(prop-1-en-2-yl)-7H-pyrrolo[2,3-d]pyrimidine-5-carboxamide]
79% | COCc1ccc(NC(=O)c2c(C#CC(C)(C)N)n(C3(C)CC3)c3ncnc(N)c23)cc1 [Example 134, 4-amino-6-(3-amino-3-methylbut-1-yn-1-yl)-N-(4-(methoxymethyl)phenyl)-7-(1-methylcyclopropyl)-7H-pyrrolo[2,3-d]pyrimidine-5-carboxamide]
56% | COCc1ccc(NC(=O)c2cn(C(C)(C)CF)c3ncnc(N)c23)cc1F [Example 41, 4-amino-7-(1-fluoro-2-methylpropan-2-yl)-N-(3-fluoro-4-(methoxymethyl)phenyl)-7H-pyrrolo[2,3-d]pyrimidine-5-carboxamide]
62% | COCc1ccc(NC(=O)c2c(C#Cc3cn(C)nc3C)n(C3(C)CC3)c3ncnc(N)c23)cc1 [Example 181, 4-amino-6-((1,3-dimethyl-1H-pyrazol-4-yl)ethynyl)-N-(4-(methoxymethyl)phenyl)-7-(1-methylcyclopropyl)-7H-pyrrolo[2,3-d]pyrimidine-5-carboxamide]
70% | COCc1ccc(NC(=O)c2c(C#Cc3ccsc3)n(C3(C)CC3)c3ncnc(N)c23)cc1 [Example 176, 4-amino-N-(4-(methoxymethyl)phenyl)-7-(1-methylcyclopropyl)-6-(thiophen-3-ylethynyl)-7H-pyrrolo[2,3-d]pyrimidine-5-carboxamide]
61% | COCc1ccc(NC(=O)c2c(-c3ccc(O)cc3)n(C3(C)CC3)c3ncnc(N)c23)cc1 [Example 148, 4-amino-6-(4-hydroxyphenyl)-N-(4-(methoxymethyl)phenyl)-7-(1-methylcyclopropyl)-7H-pyrrolo[2,3-d]pyrimidine-5-carboxamide]
68% | COCc1ccc(NC(=O)c2c(C#CCC(C)O)n(C3(C)CC3)c3ncnc(N)c23)cc1 (stereo not shown) [Example 188, 4-amino-6-(4-hydroxypent-1-yn-1-yl)-N-(4-(methoxymethyl)phenyl)-7-(1-methylcyclopropyl)-7H-pyrrolo[2,3-d]pyrimidine-5-carboxamide]
57% | COCc1ccc(NC(=O)c2c(C#CCC3CCOCC3)n(C3(C)CC3)c3ncnc(N)c23)cc1 [Example 152, 4-amino-N-(4-(methoxymethyl)phenyl)-7-(1-methylcyclopropyl)-6-(3-(tetrahydro-2H-pyran-4-yl)prop-1-yn-1-yl)-7H-pyrrolo[2,3-d]pyrimidine-5-carboxamide]
76% | COCc1ccc(NC(=O)c2c(C#Cc3ccccc3)n(C3(C)CC3)c3ncnc(N)c23)cc1 [Example 162, 4-amino-N-(4-(methoxymethyl)phenyl)-7-(1-methylcyclopropyl)-6-(phenylethynyl)-7H-pyrrolo[2,3-d]pyrimidine-5-carboxamide]
89% | COCc1ccc(NC(=O)c2c(C(C)=O)n(C3(C)CC3)c3ncnc(N)c23)cc1 [Example 64, 6-acetyl-4-amino-N-(4-(methoxymethyl)phenyl)-7-(1-methylcyclopropyl)-7H-pyrrolo[2,3-d]pyrimidine-5-carboxamide]
58% | COCc1ccc(NC(=O)c2c(-c3ccc(F)nc3)n(C3(C)CC3)c3ncnc(N)c23)cc1 [Example 190, 4-amino-6-(6-fluoropyridin-3-yl)-N-(4-(methoxymethyl)phenyl)-7-(1-methylcyclopropyl)-7H-pyrrolo[2,3-d]pyrimidine-5-carboxamide]
67% | COCc1ccc(NC(=O)c2c(OCC3CCCO3)n(C3(C)CC3)c3ncnc(N)c23)cc1 (stereo not shown) [Example 135, 4-amino-N-(4-(methoxymethyl)phenyl)-7-(1-methylcyclopropyl)-6-((tetrahydrofuran-2-yl)methoxy)-7H-pyrrolo[2,3-d]pyrimidine-5-carboxamide]
69% | COCc1ccc(NC(=O)c2c(C#Cc3csc(C)n3)n(C3(C)CC3)c3ncnc(N)c23)cc1 [Example 126, 4-amino-N-(4-(methoxymethyl)phenyl)-7-(1-methylcyclopropyl)-6-((2-methylthiazol-4-yl)ethynyl)-7H-pyrrolo[2,3-d]pyrimidine-5-carboxamide]
60% | COCc1ccc(NC(=O)c2cn(C(C)(C)CF)c3ncnc(N)c23)cc1 [Example 26, 4-amino-7-(1-fluoro-2-methylpropan-2-yl)-N-(4-(methoxymethyl)phenyl)-7H-pyrrolo[2,3-d]pyrimidine-5-carboxamide]
72% | COCc1ccc(NC(=O)c2c(C#Cc3ccc(Cl)nc3)n(C3(C)CC3)c3ncnc(N)c23)cc1 [Example 120, 4-amino-6-((6-chloropyridin-3-yl)ethynyl)-N-(4-(methoxymethyl)phenyl)-7-(1-methylcyclopropyl)-7H-pyrrolo[2,3-d]pyrimidine-5-carboxamide]
61% | COCc1ccc(NC(=O)c2c(C#Cc3cnn(C)c3C)n(C3(C)CC3)c3ncnc(N)c23)cc1 [Example 182, 4-amino-6-((1,5-dimethyl-1H-pyrazol-4-yl)ethynyl)-N-(4-(methoxymethyl)phenyl)-7-(1-methylcyclopropyl)-7H-pyrrolo[2,3-d]pyrimidine-5-carboxamide]
81% | COCc1ccc(NC(=O)c2c(C)n(C(C)(C)C)c3ncnc(N)c23)cc1 [Example 60, 4-amino-7-(tert-butyl)-N-(4-(methoxymethyl)phenyl)-6-methyl-7H-pyrrolo[2,3-d]pyrimidine-5-carboxamide]
68% | COCc1ccc(NC(=O)c2c(C#CCC3(O)CCOCC3)n(C3(C)CC3)c3ncnc(N)c23)cc1 [Example 143, 4-amino-6-(3-(4-hydroxytetrahydro-2H-pyran-4-yl)prop-1-yn-1-yl)-N-(4-(methoxymethyl)phenyl)-7-(1-methylcyclopropyl)-7H-pyrrolo[2,3-d]pyrimidine-5-carboxamide]
62% | COCc1ccc(NC(=O)c2c(Cl)n(C3(C)CC3)c3ncnc(N)c23)cc1 [Example 56, 4-amino-6-chloro-N-[4-(methoxymethyl)phenyl]-7-(1-methylcyclopropyl)-7H-pyrrolo[2,3-d]pyrimidine-5-carboxamide]
50% | COCc1ccc(NC(=O)c2c(-c3ccccc3)n(C3(C)CC3)c3ncnc(N)c23)cc1 [Example 154, 4-amino-N-(4-(methoxymethyl)phenyl)-7-(1-methylcyclopropyl)-6-phenyl-7H-pyrrolo[2,3-d]pyrimidine-5-carboxamide]
60% | COCc1ccc(NC(=O)c2c(C#Cc3cccnc3)n(C3(C)CC3)c3ncnc(N)c23)cc1 [Example 94, 4-amino-N-[4-(methoxymethyl)phenyl]-7-(1-methylcyclopropyl)-6-(pyridin-3-ylethynyl)-7H-pyrrolo[2,3-d]pyrimidine-5-carboxamide]
78% | COCc1ccc(NC(=O)c2c(C#Cc3cnc4ccoc4c3)n(C3(C)CC3)c3ncnc(N)c23)cc1 [Example 159, 4-amino-6-(furo[3,2-b]pyridin-6-ylethynyl)-N-(4-(methoxymethyl)phenyl)-7-(1-methylcyclopropyl)-7H-pyrrolo[2,3-d]pyrimidine-5-carboxamide]
57% | COCc1ccc(NC(=O)c2cn(C(C)(C)C)c3ncnc(N)c23)c(OC)c1 [Example 33, 4-amino-7-(tert-butyl)-N-(2-methoxy-4-(methoxymethyl)phenyl)-7H-pyrrolo[2,3-d]pyrimidine-5-carboxamide]
62% | COCc1ccc(NC(=O)c2c(C#Cc3cccc(NCc4ccncc4)c3)n(C3(C)CC3)c3ncnc(N)c23)cc1 [Example 122, 4-amino-N-(4-(methoxymethyl)phenyl)-7-(1-methylcyclopropyl)-6-((3-((pyridin-4-ylmethyl)amino)phenyl)ethynyl)-7H-pyrrolo[2,3-d]pyrimidine-5-carboxamide]
64% | COCc1ccc(NC(=O)c2cn(C(C)(C)C)c3ncnc(N)c23)cc1 [Example 2, 4-amino-7-(tert-butyl)-N-(4-(methoxymethyl)phenyl)-7H-pyrrolo[2,3-d]pyrimidine-5-carboxamide]
59% | CCC(O)CC#Cc1c(C(=O)Nc2ccc(COC)cc2)c2c(N)ncnc2n1C1(C)CC1 (stereo not shown) [Example 157, 4-amino-6-(4-hydroxyhex-1-yn-1-yl)-N-(4-(methoxymethyl)phenyl)-7-(1-methylcyclopropyl)-7H-pyrrolo[2,3-d]pyrimidine-5-carboxamide]
66% | COCc1ccc(NC(=O)c2c(C#CCC(C)(C)O)n(C3(C)CC3)c3ncnc(N)c23)cc1 [Example 86, 4-amino-6-(4-hydroxy-4-methylpent-1-yn-1-yl)-N-[4-(methoxymethyl)phenyl]-7-(1-methylcyclopropyl)-7H-pyrrolo[2,3-d]pyrimidine-5-carboxamide]
80% | COCc1ccc(NC(=O)c2c(C#CC3(O)CCOCC3)n(C3(C)CC3)c3ncnc(N)c23)cc1 [Example 185, 4-amino-6-((4-hydroxytetrahydro-2H-pyran4-yl)ethynyl)-N-(4-(methoxymethyl)phenyl)-7-(1-methylcyclopropyl)-7H-pyrrolo[2,3-d]pyrimidine-5-carboxamide]
67% | COCc1ccc(NC(=O)c2c(C#Cc3ccn(C)n3)n(C3(C)CC3)c3ncnc(N)c23)cc1 [Example 92, 4-amino-N-(4-(methoxymethyl)phenyl)-6-((1-methyl-1H-pyrazol-3-yl)ethynyl)-7-(1-methylcyclopropyl)-7H-pyrrolo[2,3-d]pyrimidine-5-carboxamide]

SMILES | Remaining (%)
COCc1ccc(NC(=O)c2c(OCC(C)C)n(C3(C)CC3)c3ncnc(N)c23)cc1 [Example 99, 4-amino-6-isobutoxy-N-(4-(methoxymethyl)phenyl)-7-(1-methylcyclopropyl)-7H-pyrrolo[2,3-d]pyrimidine-5-carboxamide] | 51%
